Experimental data published in US6190848A, “Color photographic element containing ballasted triazole derivative and inhibitor releasing coupler” (priority 1999, dated 2001).

Assays:
[1] = Multilayer film: interimage (density change in receiver record) and relative green or blue sensitivity; conditions: for Interimage B → G / Relative Green Sensitivity: IDIR-2 in blue layers
Text: Comparative examples are designated ML-C; inventive examples are designated ML-I.
Experimental Sample ML-C-0:
Layer 1 (Antihalation layer): black colloidal silver sol at 0.140; gelatin at 2.15; OxDS-1 at 0.108, DYE-1 at 0.049; DYE-2 at 0.017 and DYE-3 at 0.014.
Layer 2 (Slow cyan layer): a blend of three red sensitized (all with a mixture of RSD-1 and RSD-2) silver iodobromide emulsions: (i) a large sized tabular grain emulsion (1.3×0.118, 4.1 mole % I) at 0.522 (ii) a smaller tabular emulsion (0.85×0.115, 4.1 mole % I) at 0.337 and (iii) a very small tabular grain emulsion (0.55×0.115, 1.5 mole % I) at 0.559; gelatin at 2.85; cyan dye-forming coupler C-1 at 0.452; CDIR-1 at 0.043; bleach accelerator releasing coupler B-1 at 0.054 and anti-foggant 4-hydroxy-6-methyl-1,3,3a,7-tetraazaindene at 0.016.
Layer 3 (Fast cyan layer): a red-sensitized (same as above) tabular silver iodobromide emulsion (2.2×0.128, 4.1 mole % I) at 0.086; cyan coupler C-1 at 0.081; CDIR-1 at 0.034; MC-1 at 0.043; gelatin at 1.72 and anti-foggant 4-hydroxy-6-methyl-1,3,3a,7-tetraazaindene at 0.010.
Layer 4 (Interlayer): gelatin at 1.29.
Layer 5 (Slow magenta layer): a blend of two green sensitized (both with a mixture of GSD-1 and GSD-2) silver iodobromide emulsions: (i) 0.54×0.091, 4.1 mole % iodide at 0.194 and (ii) 0.52×0.085, 1.5 mole % iodide at 0.559; magenta dye forming coupler M-1 at 0.24, gelatin at 1.08 and anti-foggant 4-hydroxy-6-methyl-1,3,3a,7-tetraazaindene at 0.005.
Layer 6 (Mid magenta layer): a blend of two green sensitized (same as above) tabular silver iodobromide emulsions (i) 1.3×0.113, 4.1 mole % I at 0.430 and (ii) […], 4.1 mole % I at 0.172; magenta dye forming coupler M-1 at 0.065; MC-2 at 0.015; IDIR-5 at 0.016; gelatin at 2.12 and anti-foggant 4-hydroxy-6-methyl-1,3,3a,7-tetraazaindene at 0.003.
Layer 7 (Fast magenta layer): a green sensitized tabular silver iodobromide (1.8×0.127, 4.1 mole % I) emulsion at 0.689; gelatin at 1.61; magenta dye forming coupler M-1 at 0.043; MC-2 at 0.054 and CDIR-2 at 0.003.
Layer 8 (Yellow filter layer): gelatin at 0.86; Carey-Lea silver at 0.043 and OxDS-2 at 0.054.
Layer 9 (Slow yellow layer): an equal blend of three blue sensitized (all with YSD-1) silver iodobromide emulsions (i) 0.50×0.085, 1.5 mole % I (ii) 0.60 diameter 3-D, 3% mole I and (iii) 0.68 diameter 3-D, 3 mole % I at a total of 0.430; yellow dye forming coupler Y-2 at 0.699; yellow dye forming coupler Y-3 at 0.215; IDIR-2 at 0.086; C-1 at 0.097 and gelatin at 2.066.
Layer 10 (Fast yellow layer): two blue sensitized (with YSD-1) silver iodobromide emulsions (i) 3.1×0.137 tabular, 4.1 mole % I at 0.396 (ii) 0.95 diameter 3-D, 7.1 mole % I at 0.47; Y-2 at 0.131; Y-3 at 0.215; IDIR-2 at 0.075; C-1 at 0.011; B-1 at 0.008 and gelatin at 1.08.
Layer 11 (Protective overcoat and UV filter layer): gelatin at 1.61; silver bromide Lippman emulsion at 0.215; UV-1 and UV-2 (1:1 ratio) at a total of 0.023 and bis(vinylsulfonyl)methane hardener at 1.6% of total gelatin weight.
Surfactants, coating aids, emulsion addenda. sesquestrants, lubricants, matte and tinting dyes were added to the appropriate layers as is common in the art. The following describes the composition of each particular experimental coating based on ML-C-0:
ML-C-1: Like ML-C-0, but IDIR-6 replaces IDIR-2 in layers 9 and 10 at equimolar levels.
ML-C-2: Like ML-C-0, but IDIR-1 replaces IDIR-5 in layer 6 at 0.032.
ML-I-0: Like ML-C-0, but IEM-A added at 3×10^-4 in layer 5, 2×10^-4 in layer 6 and 2.9×10^-4 in layer 7.
ML-I-1: Like ML-C-0, but IEM-A added at 3×10^-3 in layer 5, 2×10^-3 in layer 6 and 2.9×10^-3 in layer 7.
ML-I-2: Like ML-C-0, but IEM-A added at 3×10^-2 in layer 5, 2×10^-2 in layer 6 and 2.9×10^-2 in layer 7.
ML-I-3: Like ML-C-0, but IEM-A added at 1.6×10^-3 in layers 9 and 10.
ML-I-4: Like ML-C-1, but IEM-A added at 1.6×10^-3 in layers 9 and 10.
ML-I-5: Like ML-C-2, but IEM-A added at 1.6×10^-3 in layers 9 and 10. […]

[2] = Bilayer photographic element: interimage (Cg/Cb+g) and relative green sensitivity
Protocol: Bilayer photographic elements were prepared by coating the following layers on a cellulose triacetate film support (coverages are in g/m^2). Unless otherwise noted, all comparative and inventive compounds were dispersed in twice their own weight of N,N-dibutyllauramide:
Layer 1 (Antihalation Layer): black colloidal elemental silver at 0.34 and gelatin at2.41.
Layer 2 (Receiver Layer): gelatin at 2.79, CDIR-2 at 0.03, coupler M-1 (dispersed as described previously) added at 0.045, comparison material (CIEM) or IEM added at 7.2×10^-3 mmol/m^2 (this corresponds to 1.67 mmol per mole silver as AgBr or 0.96 mmol per mole of silver) dispersed in twice its own weight of N,N-dibutyllauramide and 0.81 green sensitized AgIBr tabular emulsion.
Layer 3 (Interlayer): gelatin at 0.64, ILS-1 at 0.11 and FD-1 at 0.11.
Layer 4 (Causer Layer): gelatin at 2.79, coupler Y-1 at 0.91, 0.79 blue sensitized AgIBr tabular emulsion and the DIR at 0.11 mmol/m^2.
Layer 5 (Overcoat): gelatin at 2.79 and 0.02 bis-vinylsulfonemethylether.
Samples of each element were given a stepped exposure of either green light only or blue and green light combined and processed in the KODAK FLEXICOLOR (C-41) process as described in British Journal of Photography Annual, 1988, pp196-198. Contrast of the elements was determined using the maximum slope between any two density points. In this test, the ratio of the contrast of the green only exposure to the contrast of the green of a blue and green exposure (Cg /Cb+g) is a measure of the interimage. A higher ratio means more inhibition originating from the blue and affecting the green record.
Another set of bilayer experiments were generated in a similar manner to show the effect of IEM laydown (as mmol per mol silver) and DIR variations.

[3] = Table IV ML-I-0: 0.14 mmol IEM-A/mol silver in layers 5, 6, 7
[4] = Table IV ML-I-1: 1.4 mmol IEM-A/mol silver in layers 5, 6, 7
[5] = Table IV ML-I-2: 14 mmol IEM-A/mol silver in layers 5, 6, 7
[6] = Table V ML-I-3: IEM in blue layer, IDIR-2 in blue, IDIR-5 in green
[7] = Table V ML-I-4: IEM in blue layer, IDIR-6 in blue, IDIR-5 in green
[8] = Table V ML-I-5: IEM in blue layer, IDIR-2 in blue, IDIR-1 in green
[9] = Table V ML-I-6: IEM in blue layer, IDIR-6 in blue, IDIR-1 in green
[10] = Table III BL-23: laydown 0.96 mmol per mol silver, IDIR-2 in blue
[11] = Table III BL-24: laydown 9.6 mmol per mol silver, IDIR-2 in blue
[12] = Table III BL-26: laydown 0.96 mmol per mol silver, IDIR-6 in blue
[13] = Table III BL-27: laydown 9.6 mmol per mol silver, IDIR-6 in blue

CCC(C)(C)c1ccc(OCCCCNC(=O)c2ccc3[nH]nnc3c2)c(C(C)(C)CC)c1 [IEM-A]
Interimage B → G [1, 3]: -0.041
Relative Green Sensitivity [1, 3]: 0.99
Interimage B → G [1, 4]: -0.100
Relative Green Sensitivity [1, 4]: 0.96
Interimage B → G [1, 5]: -0.097
Relative Green Sensitivity [1, 5]: 0.82
Interimage G → B [1, 6]: -0.154
Relative Blue Sensitivity [1, 6]: 0.98
Interimage G → B [1, 7]: -0.155
Relative Blue Sensitivity [1, 7]: 0.97
Interimage G → B [1, 8]: -0.202
Relative Blue Sensitivity [1, 8]: 0.98
Interimage G → B [1, 9]: -0.243
Relative Blue Sensitivity [1, 9]: 0.96
Cg /Cb+g (interimage ratio) ([2]; Table II, IDIR-2 in blue layer, IEM or CIEM at 7.2×10^-3 mmol/m^2): 1.65
Cg /Cb+g (interimage ratio) [2, 10]: 1.95
Relative Green Sensitivity [2, 10]: 0.95
Cg /Cb+g (interimage ratio) [2, 11]: 1.62
Relative Green Sensitivity [2, 11]: 0.82
Cg /Cb+g (interimage ratio) [2, 12]: 1.33
Relative Green Sensitivity [2, 12]: 0.96
Cg /Cb+g (interimage ratio) [2, 13]: 1.59
Relative Green Sensitivity [2, 13]: 0.89
